The text below walks through data of ChEMBL document CHEMBL6177950, “Discovery of potent and selective CDK2 inhibitors with high safety and favorable bioavailability for the treatment of cancer” (Eur J Med Chem, 2025).

Assay [1] can be described thus: Antiproliferative activity against CCNE1-amplified human OVCAR-3 cells assessed as cell growth inhibition incubated for 3 days by CCK8 assay. Type of assay: functional, cell-based. The following applies: OVCAR-3, 72 h. On the technique in general: Tetrazolium dyes change colour on reduction, which living cells bring about.
The test system of assay [2] is OVCAR-3. The experiment in a line: Induction of apoptosis in human OVCAR-3 cells assessed as early apoptotic cells at 2 uM incubated for 24 hrs by Annexin V-FITC/PI staining based flow cytometry analysis (reference value: 1.25%). Type of assay: functional. (In general: Flow cytometry measures light scatter and fluorescence of single cells or particles in a stream.)

The subject of assay [3] is OVCAR-3. The experiment in a line: Induction of apoptosis in human OVCAR-3 cells assessed as necrotic cells at 2 uM incubated for 24 hrs by Annexin V-FITC/PI staining based flow cytometry analysis (reference value: 0.87%). Type of assay: functional.
Assay [4] has as its system OVCAR-3. In words: Induction of cell cycle arrest in human OVCAR-3 cells assessed as accumulation of cells at G1 phase at 2 uM incubated for 24 hrs by flow cytometry analysis (reference value: 67.73%). Format: functional.
Assay [5] relates to OVCAR-3. In words: Induction of cell cycle arrest in human OVCAR-3 cells assessed as accumulation of cells at G2 phase at 2 uM incubated for 24 hrs by flow cytometry analysis (reference value: 21.77%). Format: functional.
The subject of assay [6] is OVCAR-3. In words: Induction of apoptosis in human OVCAR-3 cells assessed as late apoptotic cells at 2 uM incubated for 24 hrs by Annexin V-FITC/PI staining based flow cytometry analysis (reference value: 2.67%). Type of assay: functional.
Assay [7] deals with OVCAR-3. In words: Induction of apoptosis in human OVCAR-3 cells assessed as viable cells at 2 uM incubated for 24 hrs by Annexin V-FITC/PI staining based flow cytometry analysis (reference value: 95.2%). Format: functional. The following applies: read-out: Activity.
For assay [8], the target named is Cyclin-dependent kinase 2/cyclin E1 (Homo sapiens, UniProt P24941). The experiment in a line: Inhibition of CDK2/Cyclin E1 (unknown origin) pre-incubated for 10 mins followed by ATP/substrate addition and measured after 60 mins by ADP-Glo assay. Format: protein-complex assay. (ADP-Glo turns the ADP formed in a reaction into a luminescent signal.)
The next assay relates to MCF7. In words: Antiproliferative activity against wild type human MCF7 cells assessed as cell growth inhibition. Type of assay: functional, cell-based.
Assay [9] is described as follows: Antiproliferative activity against Palbociclib-resistance human MCF7 cells assessed as cell growth inhibition. Type of assay: functional, cell-based, Palbociclib-resistant MCF7 cell.

pIC50: −log10 of the molar value.

Broadly, the pIC50 is the negative decadic logarithm of the IC50, by convention in mol/L.

For `FC(F)Oc1cc(Nc2cnc3cnn(CC4CCOCC4)c3n2)n[nH]1` [CERTOCICLIB], in assay [1], the pIC50 is 5.64. The Activity came out at 4.47% with OVCAR-3 [2]; 3.77% with OVCAR-3 [3]; 95.66% in the assay on OVCAR-3 [4]; 2.64% with OVCAR-3 [5]; 12.5% in the assay with OVCAR-3 [6]. In the assay with OVCAR-3 [7], the viability at 2 µM worked out at 79.3%. In assay [8], `CC(C)Oc1ccc(-c2nc(NC3CCN(S(C)(=O)=O)CC3)ncc2F)cn1` had a negative-log IC50 (pIC50) of 7.03. For the compound `CCC(C)n1cc(-c2nc(NC3CCN(S(=O)(=O)CC)CC3)ncc2F)cc(F)c1=O` (stereo not drawn), the pIC50 in assay [8] is 8.15. `CC(C)n1cc(-c2nc(NC3CCN(S(=O)(=O)C(C)C)CC3)ncc2F)ccc1=O` gave a negative-log IC50 (pIC50) in assay [8] of 7.80. `CC(C)Oc1ncc(-c2nc(NC3CCN(S(C)(=O)=O)CC3)ncc2F)cc1C(=O)O` gave a pIC50 in [8] of 6.18.

The compound `CCC(C)n1cc(-c2nc(NC3CCN(S(=O)(=O)CCOC)CC3)ncc2F)cc(F)c1=O` (stereo not drawn) gave a pIC50 in assay [8] of 8.30. In assay [8], `COc1cnc(NC2CCN(S(C)(=O)=O)CC2)nc1-c1cnc(OC(C)C)c(F)c1` had a pIC50 of 6.47. `COCCS(=O)(=O)N1CCC(Nc2ncc(F)c(-c3cnc(OC(C)C)c(F)c3)n2)CC1`: the pIC50 in [8] is 6.91. As for `CC(=O)c1c(C)c2cnc(Nc3ccc(N4CCNCC4)cn3)nc2n(C2CCCC2)c1=O` [PALBOCICLIB], the pIC50 with MCF7 is 7.10; in assay [9] it was 4.86.

For the compound `CCCCn1cc(-c2nc(NC3CCN(S(C)(=O)=O)CC3)ncc2F)cc(F)c1=O`, the pIC50 in assay [8] is 7.89. In turn, `Cn1cc(-c2nc(NC3CCN(S(C)(=O)=O)CC3)ncc2F)cc(F)c1=O` had a pIC50 in assay [8] of 7.15.

`Cc1cc(-c2nc(NC3CCN(S(C)(=O)=O)CC3)ncc2F)cnc1OC(C)C` showed a pIC50 in assay [8] of 6.78. In assay [8], `CCS(=O)(=O)N1CCC(Nc2ncc(F)c(-c3cnc(OC(C)C)c(F)c3)n2)CC1` showed a pIC50 of 6.95. Regarding `CC(C)n1cc(-c2nc(NC3CCNCC3)ncc2F)ccc1=O`, the pIC50 in assay [8] is below 6.00. `Cc1cc(-c2nc(NC3CCN(S(C)(=O)=O)CC3)ncc2F)cn(C(C)C)c1=O` showed a pIC50 in [8] of 6.65. On the same count and under the same terms, with `CC(C)n1cc(-c2nc(NC3CCN(C(=O)OC(C)(C)C)CC3)ncc2F)ccc1=O` the figure was 6.86; with `CCS(=O)(=O)N1CCC(Nc2ncc(F)c(-c3cc(F)c(=O)n(C(C)C)c3)n2)CC1`, 8.22; with `CC(C)n1cc(-c2nc(NC3CCN(S(C)(=O)=O)CC3)ncc2F)cc(F)c1=O`, 8.40. Same read-out and setting: as for `CCCS(=O)(=O)N1CCC(Nc2ncc(F)c(-c3ccc(=O)n(C(C)C)c3)n2)CC1`, the figure is 8.15; as for `CCCS(=O)(=O)N1CCC(Nc2ncc(F)c(-c3cc(F)c(=O)n(C(C)C)c3)n2)CC1`, 8.30; as for `CC(=O)N1CCC(Nc2ncc(F)c(-c3ccc(=O)n(C(C)C)c3)n2)CC1`, 7.20. Regarding `CC(C)n1cc(-c2nc(NC3CCN(S(=O)(=O)C(C)C)CC3)ncc2F)cc(F)c1=O`, the pIC50 in [8] was 8.10. In assay [8], `CC(C)Cn1cc(-c2nc(NC3CCN(S(C)(=O)=O)CC3)ncc2F)cc(F)c1=O` showed a pIC50 of 7.92. Still for that read-out and setting: as for `CC(C)=CCn1cc(-c2nc(NC3CCN(S(C)(=O)=O)CC3)ncc2F)cc(F)c1=O`, the figure is 7.82. For `CCC(C)n1cc(-c2nc(NC3CCN(S(C)(=O)=O)CC3)ncc2F)cc(F)c1=O` (stereo not drawn), the pIC50 in assay [8] is 8.52. Compound `COCCS(=O)(=O)N1CCC(Nc2ncc(F)c(-c3cc(F)c(=O)n(C(C)C)c3)n2)CC1` had a negative-log IC50 (pIC50) in [8] of 8.15. In turn, `CC(C)n1cc(-c2nc(NC3CCN(S(=O)(=O)C4CC4)CC3)ncc2F)cc(F)c1=O` showed a pIC50 in [8] of 8.30.

In [8], `CCCS(=O)(=O)N1CCC(Nc2ncc(F)c(-c3cnc(OC(C)C)c(F)c3)n2)CC1` gave a negative logarithm of the IC50 (pIC50) of 6.89.

Compound `CC(C)Oc1ncc(-c2nc(NC3CCN(S(=O)(=O)C(C)C)CC3)ncc2F)cc1F` had a pIC50 in assay [8] of 6.67.

`COCCS(=O)(=O)N1CCC(Nc2ncc(F)c(-c3ccc(=O)n(C(C)C)c3)n2)CC1` showed a pIC50 in [8] of 8.00. On to `CC(C)Oc1ncc(-c2nc(NC3CCN(S(C)(=O)=O)CC3)ncc2F)cc1F`, for which the negative logarithm of the IC50 (pIC50) in [8] was 7.14. Consider `CC(C)Oc1ncc(-c2ccnc(NC3CCN(S(C)(=O)=O)CC3)n2)cc1F`, for which the pIC50 in [8] was 6.09. For the compound `CCn1cc(-c2nc(NC3CCN(S(C)(=O)=O)CC3)ncc2F)cc(F)c1=O`, in assay [8], the pIC50 was 7.64.

`CC(C)n1cc(-c2nc(NC3CCN(S(C)(=O)=O)CC3)ncc2F)ccc1=O` gave a pIC50 in assay [8] of 8.15.

`Cc1nc(OC(C)C)ccc1-c1nc(NC2CCN(S(C)(=O)=O)CC2)ncc1F` had a pIC50 in [8] of 6.53. Regarding `CC(C)n1cc(-c2nc(NC3CCN(S(=O)(=O)C(F)(F)F)CC3)ncc2F)ccc1=O`, in assay [8], the pIC50 is 7.38.
